# Data from ChEMBL document CHEMBL1141459, “Kv7 (KCNQ) channel modulators and neuropathic pain” (J Med Chem, 2007).
# How the values were obtained:
# Rattus norvegicus [1] = test: Analgesic activity in SNL nerve injury in iv dosed rat model; assay type: functional; details: for minimal effective dose: Rattus norvegicus, iv, read-out: MED
# Rattus norvegicus [2] = organism: Rattus norvegicus; test: Analgesic activity in streptozotocin-induced diabetic rat model of pain; assay type: functional; details: read-out: MED
# Rattus norvegicus [3] = test: Analgesic activity in carrageenan model in po dosed rat model; assay type: functional; details: read-out: MED
# Rattus norvegicus [4] = test: Analgesic activity in SNL nerve injury in po dosed rat model; assay type: functional
# Rattus norvegicus [5] = test: Analgesic activity in formalin-induced pain hypersensitivity in po dosed rat; assay type: functional
# Rattus norvegicus [6] = test: Analgesic activity in CCI and SNL nerve injury in po dosed rat model of pain; assay type: functional; details: read-out: MED
# [7] = Activity at Kv.7 channel expressed in cloned CHO cells by patch clamp method; assay type: cell-based
# [8] = molecular target: Potassium voltage-gated channel subfamily KQT member 2 (Homo sapiens, UniProt O43526); test: Activity at Kv 7.2 channel expressed in cloned CHO cells by [86Rb] efflux assay; assay type: cell-based
# Potassium voltage-gated channel subfamily KQT member 2, sequence (O43526 whole entry): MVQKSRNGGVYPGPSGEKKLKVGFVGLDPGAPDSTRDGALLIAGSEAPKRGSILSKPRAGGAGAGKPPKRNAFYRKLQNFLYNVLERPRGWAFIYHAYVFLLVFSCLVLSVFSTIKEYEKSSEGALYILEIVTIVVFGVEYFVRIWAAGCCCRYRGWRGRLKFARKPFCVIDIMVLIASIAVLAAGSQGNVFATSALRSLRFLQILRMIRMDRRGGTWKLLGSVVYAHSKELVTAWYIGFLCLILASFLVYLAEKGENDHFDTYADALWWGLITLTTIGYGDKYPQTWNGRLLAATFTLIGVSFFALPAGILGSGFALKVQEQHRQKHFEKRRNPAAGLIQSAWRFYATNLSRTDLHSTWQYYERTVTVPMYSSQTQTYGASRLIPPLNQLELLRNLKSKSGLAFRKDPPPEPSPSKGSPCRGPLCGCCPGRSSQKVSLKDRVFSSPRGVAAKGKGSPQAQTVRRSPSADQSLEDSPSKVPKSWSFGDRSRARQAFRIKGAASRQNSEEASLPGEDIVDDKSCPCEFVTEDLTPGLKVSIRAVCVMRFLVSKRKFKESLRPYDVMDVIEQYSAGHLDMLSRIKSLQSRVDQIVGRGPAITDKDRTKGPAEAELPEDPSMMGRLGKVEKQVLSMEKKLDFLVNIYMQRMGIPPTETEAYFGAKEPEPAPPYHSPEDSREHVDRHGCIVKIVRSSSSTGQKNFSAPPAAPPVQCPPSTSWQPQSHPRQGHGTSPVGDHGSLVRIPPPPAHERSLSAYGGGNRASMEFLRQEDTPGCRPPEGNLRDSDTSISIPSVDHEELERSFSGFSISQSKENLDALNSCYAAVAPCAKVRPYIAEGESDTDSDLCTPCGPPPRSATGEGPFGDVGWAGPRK
# Rattus norvegicus [9] = organism: Rattus norvegicus; test: Toxicity in rat by rotarod test; assay type: organism-based; details: in vivo
# [10] = Therapeutic index, ratio of ED50 in rotor rod test in rat to ED50 in rat kindling model of epileptic seizures; details: read-out: TI
# [11] = Therapeutic index, ratio of ED50 in rotor rod test in rat to ED50 in rat spinal nerve ligation model of neuropathic pain; assay type: organism-based; details: in vivo, read-out: TI
# Rattus norvegicus [12] = test: Analgesic activity in formalin-induced pain hypersensitivity in ip dosed rat; assay type: functional
smiles,measurement,setting,value
C[C@H](NC(=O)/C=C/c1ccc(F)cc1)c1ccc(F)c(N2CCOCC2)c1,minimal effective dose,Rattus norvegicus [1],10 mg/kg
same,minimal effective dose,Rattus norvegicus [2],10 mg/kg
C[C@H](NC(=O)/C=C/c1ccccc1F)c1cccc(-n2cccn2)c1,minimal effective dose,Rattus norvegicus [1],10 mg/kg
CC(NC(=O)c1sc(-c2ccccc2F)nc1C(F)(F)F)c1cccc(-c2cccc(OC(F)(F)F)c2)c1 (stereo unspecified),MED,Rattus norvegicus [1],10 mg/kg
same,minimal effective dose,Rattus norvegicus [1],10 mg/kg
C[C@H](NC(=O)/C=C/c1ccccc1F)c1cccc(Oc2cccnc2)c1,minimal effective dose,Rattus norvegicus [1],10 mg/kg
O=C(Nc1ccc(Cl)nc1)c1ccc(F)c(F)c1,minimal effective dose,Rattus norvegicus [3],30 mg/kg
same,ED50,Rattus norvegicus [4],25 mg/kg
CCOC(=O)Nc1ccc(NCc2ccc(F)cc2)cc1N [EZOGABINE],ED50,Rattus norvegicus [5],47.6 mg/kg
same,minimal effective dose,Rattus norvegicus [6],10 mg/kg
same,EC50,[7],1 µM
same,EC50,[8],< 0.15 µM
same,ED50,Rattus norvegicus [9],40 mg/kg
same,selectivity ratio,[10],4
same,selectivity ratio,[11],1.6
same,ED50,Rattus norvegicus [12],6.6 mg/kg
